Test results reported in patent US20260021085A1, “CYCLOALKYL CARBOXYLIC ACID DERIVATIVES AS INHIBITORS OF GLYCOGEN SYNTHASE 1 (GYS1) AND METHODS OF USE THEREOF” (Maze Therapeutics, Inc., priority 2022, published 2026).

Legend:
[1] = biological target: human GYS2 (Homo sapiens (Human), UniProt P54840); assay: GYS2 coupled enzyme assay (PK/LDH); format: biochemical; conditions: recombinant hGYS2/GN1 protein; geometric mean of at least 2 assay runs
Description: (§1) The GYS2 coupled enzyme assay is a kinetic biochemical assay that indirectly quantifies the rate of glycogen synthesis by coupling the conversion of GYS2 substrate UDP-glucose into UDP with downstream enzymatic reactions. UDP is released from UDP-glucose as glucose monomers are linked into the growing glycogen strand by GYS2. The coupled assay then proceeds with pyruvate kinase utilizing UDP and phospho (enol) pyruvate (PEP) to form pyruvate. Lactate dehydrogenase then converts pyruvate and NADH into lactate and NAD+. Oxidation of NADH to NAD+ can be measured continuously with a plate reader by quantifying the decrease in NADH absorbance at 340 nm over time.
Compounds that inhibit the hGYS2 enzyme and, subsequently, the downstream conversion of NADH to NAD+, were tested using assay ready plates (black, clear bottom 384 well plates) in a final DMSO reaction volume of 2.5% DMSO. The Assay Buffer contained 50 mM Tris pH 7.5, 2 mM MgCl2, and 100 mM KCl. Fresh stocks of BSA at a final concentration of 0.02% and TCEP 1 mM were added before splitting buffer into hGYS2 buffer and substrate buffer. To the hGYS2 buffer, rabbit liver glycogen was added at a final concentration of 0.2% glycogen. Glucose-6-Phosphate was added at 2 mM, recombinant hGYS2/GN1 protein was added at 200 nM to the substrate buffer, phosphoenolpyruvate (PEP) was added at 2 mM, UDP-Glucose was added at 2 mM, NADH was added at 0.6 mM, and Pyruvate Kinase/Lactate Dehydrogenase was added at 20 units/mL. The reaction was initiated by mixing hGYS2 buffer and substrate buffer at a 1:1 ratio. Both buffers were plated using a liquid dispensing device with hGYS2 buffer plated first followed by the substrate buffer. Plates were spun briefly to eliminate air bubbles and are immediately read in continuous mode at an absorbance of 340 nm, for 10 time points in one-minute increments, for a total of 10 minutes. The slope from these 10 time points was normalized to the positive and negative control wells.
(§2) Unless otherwise specified, IC50 values are reported as the geometric mean of at least 2 assay runs on separate days. […] Unless otherwise specified, IC50 values are reported as the geometric mean of at least two assay runs on separate days. Each run represents the average of a technical replicate, where each compound was assayed twice in the same plate.

[2] = biological target: hGYS1 enzyme, glycogen synthesis in HeLa cells (Homo sapiens (Human), UniProt P13807); assay: GYS1 cell based assay (glycogen synthesis in HeLa cells, Glucose-glo); conditions: starved HeLa cells, 24 h incubation; geometric mean of at least 2 assay runs; read-out: Cellular IC50
hGYS1 enzyme, glycogen synthesis in HeLa cells, sequence (P13807 whole entry): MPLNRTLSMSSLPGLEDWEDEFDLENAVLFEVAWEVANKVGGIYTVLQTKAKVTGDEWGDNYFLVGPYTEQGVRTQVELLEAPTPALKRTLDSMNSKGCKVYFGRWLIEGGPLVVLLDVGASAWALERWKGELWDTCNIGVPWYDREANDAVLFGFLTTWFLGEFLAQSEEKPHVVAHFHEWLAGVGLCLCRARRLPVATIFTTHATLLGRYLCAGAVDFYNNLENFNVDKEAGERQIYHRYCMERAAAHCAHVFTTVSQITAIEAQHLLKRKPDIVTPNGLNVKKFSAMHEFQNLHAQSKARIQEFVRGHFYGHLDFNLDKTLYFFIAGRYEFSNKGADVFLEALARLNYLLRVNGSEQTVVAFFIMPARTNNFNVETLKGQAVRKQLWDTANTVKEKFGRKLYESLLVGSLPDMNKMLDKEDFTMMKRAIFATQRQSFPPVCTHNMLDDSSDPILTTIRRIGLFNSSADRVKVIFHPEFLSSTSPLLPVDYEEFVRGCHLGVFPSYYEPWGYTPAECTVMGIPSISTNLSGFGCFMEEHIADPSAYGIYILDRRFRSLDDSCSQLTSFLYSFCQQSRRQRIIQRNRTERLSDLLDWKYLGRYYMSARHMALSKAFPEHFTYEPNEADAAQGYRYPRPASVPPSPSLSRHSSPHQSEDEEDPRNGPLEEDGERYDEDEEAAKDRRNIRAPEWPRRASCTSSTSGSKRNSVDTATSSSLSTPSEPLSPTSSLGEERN
Description: The GYS1 cell based assay is a bioluminescent assay that quantifies the glucose resulting from glycogen digestion; the quantified glucose is an indirect measure of GYS1 glycogen synthesis. Newly synthesized glycogen is digested using Glucoamylase; the resulting glucose is quantified by using the Glucose-glo assay kit from Promega. Glucose-glo works by coupling glucose oxidation and NADH production with a bioluminescent system that is activated with NADH. Glucose is oxidized by Glucose dehydrogenase and the reaction reduces NAD+ to NADH; NADH activates Reductase which reduces a pro-luciferin Reductase Substrate to luciferin. Luciferin is detected in a luciferase reaction using Ultra-Glo rLuciferase and ATP, and the luminesce produced is proportional to the glucose in the sample. The luminescence is measured as a single point read in a plate reader.
Compounds that inhibit the hGYS1 enzyme and, subsequently, the glycogen synthesis in cells, were tested using assay ready plates (white, clear bottom 384 well plates) in a final DMSO reaction volume of 1% DMSO. Compounds in the assay ready plates were mixed with media with no additives, except for 20 mM glucose prior to cell addition. HeLa cells were starved in media with no additives, except for 1× Glutamax for 24 h. Starved HeLa cells were plated, in a 1:1 ratio to the media in the assay ready plate and incubated for 24 h at 37° C. and 5% CO2. Cells were washed in 1×PBS buffer and lysed in lysis buffer containing 50% 1×PBS and 25% 0.3 N HCl of the final volume in the well or reaction volume; cells were incubated with lysis buffer for 10 minutes and quenched with the remaining 25% of the reaction volume that consisted of 450 mM Tris pH 8.0. Lysates were mixed in a 1:1 ratio with Glucoamylase in 100 mM Sodium Acetate buffer, pH 5.3; the mixture was incubated for 1 h at 37° C. The digested lysate was mixed in a 1:1 ratio with Glucose-glo detection mixture as per vendor recommendations (Luciferase detection buffer, Reductase, Reductase substrate, Glucose dehydrogenase, and NAD) in read-out plates (solid white 384-well plates) and incubated for 1 h at RT. The plates were read using a plate reader with luminescence capabilities. Each compound concentration Relative Luminescence Unit (RLU) was averaged and normalized to the average RLU of the positive and negative controls to obtain a percentage inhibition. The normalized data vs. concentration was plotted; to determine the half-maximal concentration (IC50), the Levenberg-Marquardt algorithm was used to fit a Hill equation to the dose response data.
as §2

[3] = biological target: human GYS1 (Homo sapiens (Human), UniProt P13807); assay: GYS1 coupled enzyme assay (PK/LDH); format: biochemical; conditions: recombinant hGYS1/GN1 protein; geometric mean of at least 2 assay runs
human GYS1, sequence (P13807 whole entry): as above
human GYS1, sequence (P46976 whole entry partner): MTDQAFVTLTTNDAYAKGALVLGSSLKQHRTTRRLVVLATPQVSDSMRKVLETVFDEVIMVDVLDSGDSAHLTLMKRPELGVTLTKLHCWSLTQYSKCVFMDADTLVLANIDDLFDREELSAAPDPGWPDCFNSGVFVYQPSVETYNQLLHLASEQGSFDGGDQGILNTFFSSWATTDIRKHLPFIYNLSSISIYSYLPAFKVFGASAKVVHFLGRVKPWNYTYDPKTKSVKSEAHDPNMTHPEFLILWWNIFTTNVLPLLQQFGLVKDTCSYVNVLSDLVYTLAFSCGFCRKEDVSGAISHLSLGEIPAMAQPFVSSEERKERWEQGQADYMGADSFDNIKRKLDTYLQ
Description: as §1, with “GYS1” for “GYS2”, “GYS1.” for “GYS2.”
Compounds that inhibit the hGYS1 enzyme and, subsequently, the downstream conversion of NADH to NAD+, were tested using assay ready plates (black, clear bottom 384 well plates) in a final DMSO reaction volume of 2.5% DMSO. The Assay Buffer contained 50 mM Tris pH 7.5, 2 mM MgCl2, and 100 mM KCl. Fresh stocks of BSA at a final concentration of 0.02% and TCEP at 1 mM were added before splitting buffer into hGYS1 buffer and substrate buffer. To the hGYS1 buffer, rabbit liver glycogen was added at a final concentration of 0.2% glycogen. Glucose-6-Phosphate was added at 1 mM, recombinant hGYS1/GN1 protein was added at 50 nM to the substrate buffer, phosphoenolpyruvate (PEP) was added at 2 mM, UDP-Glucose was added at 0.8 mM, NADH) was added at 0.6 mM, and Pyruvate Kinase/Lactate Dehydrogenase was added at 20 units/mL. The reaction was initiated by mixing hGYS1 buffer and substrate buffer at a 1:1 ratio. Both buffers were plated using a liquid dispensing device with hGYS1 buffer plated first followed by the substrate buffer. Plates were spun briefly to eliminate air bubbles and are immediately read in continuous mode at an absorbance of 340 nm, for 10 time points in one-minute increments, for a total of 10 minutes. The slope from these 10 time points was normalized to the positive and negative control wells.
Unless otherwise specified, IC50 values are reported as the geometric mean of at least 2 assay runs on separate days. Each run represents the average of a technical replicate, where each compound was assayed twice in the same plate.

human GYS2, sequence (P54840 whole entry): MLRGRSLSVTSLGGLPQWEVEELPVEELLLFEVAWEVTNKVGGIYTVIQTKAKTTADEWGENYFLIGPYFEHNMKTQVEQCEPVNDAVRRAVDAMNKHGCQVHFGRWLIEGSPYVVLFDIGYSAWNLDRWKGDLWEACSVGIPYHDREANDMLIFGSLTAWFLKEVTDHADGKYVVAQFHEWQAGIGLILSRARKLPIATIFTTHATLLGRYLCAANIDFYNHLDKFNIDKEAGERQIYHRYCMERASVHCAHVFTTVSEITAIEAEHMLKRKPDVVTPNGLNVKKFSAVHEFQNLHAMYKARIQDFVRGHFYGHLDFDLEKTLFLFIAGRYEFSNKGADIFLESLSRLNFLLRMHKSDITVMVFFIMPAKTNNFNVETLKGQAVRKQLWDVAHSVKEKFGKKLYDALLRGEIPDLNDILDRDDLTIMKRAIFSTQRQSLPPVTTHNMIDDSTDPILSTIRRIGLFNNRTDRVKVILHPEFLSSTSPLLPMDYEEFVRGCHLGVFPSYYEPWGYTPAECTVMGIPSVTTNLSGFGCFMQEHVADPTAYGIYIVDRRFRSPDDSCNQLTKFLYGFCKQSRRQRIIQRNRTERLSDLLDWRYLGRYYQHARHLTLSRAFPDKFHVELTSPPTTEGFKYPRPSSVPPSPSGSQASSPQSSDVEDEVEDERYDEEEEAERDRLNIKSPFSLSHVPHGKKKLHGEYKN
human GYS2, sequence (P46976 whole entry partner): as the sequence (P46976 whole entry partner) above

| Structure (SMILES) | IC50 [1] | IC50 [2] | IC50 [3] |
| --- | --- | --- | --- |
| Cc1ccccc1[C@H](NC(=O)[C@@H]1CCC[C@@H]1C(=O)O)c1ccc(C(C)C)cn1 [Compound 22, (1S,2R)-2-(((S)-(5-isopropylpyridin-2-yl)(o-tolyl)methyl)carbamoyl)cyclopentane-1-carboxylic acid] | 66.7 µM | 13.9 µM | 1.27 µM |
| Cc1ccccc1[C@H](NC(=O)[C@@H]1CCC[C@@H]1C(=O)O)c1ccc(C2CC2)cc1 [Compound 26, (1S,2R)-2-(((R)-(4-cyclopropylphenyl)(o-tolyl)methyl)carbamoyl)cyclopentane-1-carboxylic acid] | 15.5 µM | 21.6 µM | 0.795 µM |
| CC(C)c1ccc([C@@H](NC(=O)[C@@H]2CCC[C@@H]2C(=O)O)c2ccn[nH]2)cc1F [Compound 27, (1S,2R)-2-(((R)-(3-fluoro-4-isopropylphenyl)(1H-pyrazol-5-yl)methyl)carbamoyl)cyclopentane-1-carboxylic acid] | > 100 µM | 46.3 µM | 1.48 µM |
| CC(C)c1ccc([C@@H](NC(=O)[C@@H]2CCC[C@@H]2C(=O)O)c2cccc3c2NC(=O)CC3)cc1 [Compound 31, (1S,2R)-2-(((R)-(4-isopropylphenyl)(2-oxo-1,2,3,4-tetrahydroquinolin-8-yl)methyl)carbamoyl)cyclopentane-1-carboxylic acid] | > 100 µM | 12.3 µM | 1.09 µM |
| COc1ccccc1[C@H](NC(=O)[C@@H]1CCC[C@@H]1C(=O)O)c1ccc(C(C)C)cc1 [Compound 39, (1S,2R)-2-(((R)-(4-isopropylphenyl)(2-methoxyphenyl)methyl)carbamoyl)cyclopentane-1-carboxylic acid] | 66.4 µM | 41.3 µM | 3.4 µM |
| CC(C)c1ccc([C@@H](NC(=O)[C@@H]2CCC[C@@H]2C(=O)O)c2cccs2)cc1 [Compound 45, (1S,2R)-2-(((R)-(4-isopropylphenyl)(thiophen-2-yl)methyl)carbamoyl)cyclopentane-1-carboxylic acid] | 98 µM | 6.6 µM | 0.364 µM |

Next, values leading:

| IC50 [1] | IC50 [2] | IC50 [3] | Structure (SMILES) |
| --- | --- | --- | --- |
| 8.48 µM | 5.36 µM | 0.166 µM | Cc1ccccc1[C@H](NC(=O)[C@@H]1CCC[C@@H]1C(=O)O)c1ccc(C(C)C)c(F)c1 [Compound 23, (1S,2R)-2-(((R)-(3-fluoro-4-isopropylphenyl)(o-tolyl)methyl)carbamoyl)cyclopentane-1-carboxylic acid] |
| 72.8 µM | 3.69 µM | 0.236 µM | CC(C)c1ccc([C@@H](NC(=O)[C@@H]2CCC[C@@H]2C(=O)O)c2ccccc2)cc1F [Compound 37, (1S,2R)-2-(((S)-(3-fluoro-4-isopropylphenyl)(phenyl)methyl)carbamoyl)cyclopentane-1-carboxylic acid] |
